The values that follow come from US20250368678A1, “19-NOR-C3,3-DISUBSTITUTED C21-AZACYCLO-S[…] AND METHOD FOR USING SAME” (SHANDONG LUYE PHARMACEUTICAL CO., LTD., priority 2022, published 2025).

The structures appear in SMILES notation. Where only a bound is given, the exact number is not on record here.

Data set [1] concerns the target T1, α1β2γ2 GABA receptors (α1β2γ2-CHO-TRex stable cell strain) (Homo sapiens, UniProt P14867+P47870).
T1 construct: expressed in transfected cells
As to the kind of experiment: Whole-cell patch clamp, intrasynaptic functional activity (positive allosteric regulation of GABA-induced current). In kind it is cell-based. The note with it: patch clamp -60 mV, GABA at EC10-20, α1β2γ2-CHO-TRex cells. The procedure:
(§1) The α4β3δ-HEK-FlpIn-TRex stable cell strain was cultured in DMEM+10% FBS complete culture medium, with the selective antibiotics being 10 μg/mL Blasticidin, 100 µg/mL Zeocin, 100 µg/mL Hygromycin, and 0.2 μg/mL Puromycin. The α1β2γ2-CHO-TRex stable cell strain was cultured in DMEM/F12+10% FBS complete culture medium, with the selective antibiotics being 10 μg/mL Blasticidin, 100 μg/mL Zeocin, 300 μg/mL Hygromycin, and […] Puromycin.
(§2) The day before the patch clamp experiment, cells were seeded onto 12 mm polylysine-coated coverslips and then cultured in 35 mm culture dishes, and tetracycline ([…]) was added to induce the expression of GABA receptors. The extracellular fluid had the following composition (in mM): 140 NaCl, 3 KCl, 1.5 MgCl2, 2 CaCl2, 10 HEPES, and 10 Glucose. After thorough mixing, NaOH was added to adjust the pH to 7.4, and sucrose was added to adjust the osmotic pressure to 300-320 mOsm. The fluid was stored at 4° C. The electrode internal solution had the following composition (in mM): 145 KCl, 1 MgCl2, 5 EGTA, 10 HEPES, and 5 MgATP. After thorough mixing, KOH was added to adjust the pH to 7.3, and sucrose was added to adjust the osmotic pressure to 290-300 mOsm. The solution was filtered through a […] before use.
(§3) Whole-cell patch clamp recording was mainly employed in this experiment. The membrane potential was clamped at −60 mV, and receptors were activated using GABA at an EC10-20 concentration ([…]). The test compounds were dissolved in 0.1% DMSO, and perfusion was performed for 30 s prior to GABA stimulation. Finally, the positive allosteric regulating effects of the test compounds on α1β2γ2 or α4β3δ were determined.
(§4) The experimental result for each concentration was expressed as a fold increase in the GABA-induced current caused by the compound. […] At least 5 concentrations are tested to obtain a complete EC50 curve and EC50 values. All experiments were repeated on no less than 3 cells, and data processing was completed using GraphPad prism software. The dose-response curves were fitted using the Hill equation, and the half-maximal activating concentration EC50 and Emax were finally obtained.
A general note: In patch-clamp work, channel activity is measured electrically.

Data set [2] in a line: In vitro liver microsomal stability assay, human. The conditions noted are these: for Remaining amount % at 60 min: Human liver microsomes 0.5 mg/mL, NADPH; for microsomal CLint at 1 µM: read-out: CLint(mic). In kind it is in vitro ADME. On the procedure: (§5) 1) Preparation of working solutions of test samples: The test samples were diluted with acetonitrile to 100 M.
(§6) 2) Preparation of a working solution of liver microsomes: liver microsomes were diluted with 100 mM phosphate-buffered saline to 0.56 mg/mL.
(§7) 3) Preparation of a working solution of reduced nicotinamide adenine dinucleotide (NADPH): A proper amount of NADPH was weighed out and diluted with phosphate-buffered saline to 20 mM, and an equal volume of a 60 mM MgCl2 solution was added.
(§8) 4) Preparation of a stop solution: Tolbutamide was diluted with acetonitrile to 20 ng/mL, serving as a stop solution containing an internal standard.
(§9) 1) Incubation anti-adsorption EP tubes were prepared and labeled with species, test/control sample, time points (0, 5, 10, 20, 30, 60 min, Blank60, and NCF60), etc.
(§10) 2) 2 L of test or control sample working solution, diluted with acetonitrile to 100 M, and 178 L of liver microsome working solution were added to each tube. For the Blank60 tube, 2 L of acetonitrile was added instead of a test sample. The tubes were pre-incubated in a 37° C. water bath for about 10 min, with each sample tested in triplicate.
(§11) 3) After the pre-incubation was complete, 20 L of NADPH working solution was added to each tube except for the 0 min and NCF60 tubes to start reactions, and 20 L of phosphate-buffered saline (containing 30 mM MgCl2) was added to the NCF60 tube. In the incubation system, the final concentrations of the test and control samples were 1 M, the final concentration of liver microsomes was 0.5 mg/mL, the final concentration of NADPH was 1 mM, and the final concentration of MgCl2 was 3 mM.
(§12) 4) For the 0 min sample, 600 L of stop solution was added before adding the NADPH working solution. After each sample was incubated for its respective time, 600 L of stop solution was added to stop the reaction.
(§13) 5) After the reaction was stopped, each sample was vortexed for 30 s and then centrifuged at 13,500 rpm for 10 min. 100 L of the supernatant was transferred to an EP tube, and 100 L Milli-Q water was added. The mixture was well mixed by vortexing and analyzed by LC-MS/MS.
(§14) 6) Testosterone and dextromethorphan were used as positive control samples under the same conditions to assess the stability and reliability of the system.
(§15) Parameters of the test samples, including their half-lives, intrinsic clearance rates in liver microsomes, and hepatic intrinsic clearance rates, were calculated based on the percentage of test sample remaining.

Data set [3] deals with T2, α4β3δ GABA receptors (α4β3δ-HEK-FlpIn-TRex stable cell strain) (Homo sapiens, UniProt P28472+P48169).
T2 construct: expressed in transfected cells
T2 sequence (P48169 36-554): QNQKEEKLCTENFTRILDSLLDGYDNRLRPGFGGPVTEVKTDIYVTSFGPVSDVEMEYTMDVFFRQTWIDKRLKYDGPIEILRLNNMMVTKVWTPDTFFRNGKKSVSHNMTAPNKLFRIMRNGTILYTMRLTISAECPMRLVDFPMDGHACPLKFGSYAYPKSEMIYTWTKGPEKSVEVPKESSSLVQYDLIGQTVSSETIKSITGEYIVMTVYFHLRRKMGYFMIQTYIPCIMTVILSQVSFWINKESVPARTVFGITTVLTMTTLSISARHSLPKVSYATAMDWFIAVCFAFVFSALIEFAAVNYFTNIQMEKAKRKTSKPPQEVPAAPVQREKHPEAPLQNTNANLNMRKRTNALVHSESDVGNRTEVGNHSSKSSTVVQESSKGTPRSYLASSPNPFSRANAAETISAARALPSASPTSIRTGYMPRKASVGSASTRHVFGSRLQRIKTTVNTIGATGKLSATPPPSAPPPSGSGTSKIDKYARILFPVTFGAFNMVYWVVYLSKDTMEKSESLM
T2 sequence (P28472 26-473): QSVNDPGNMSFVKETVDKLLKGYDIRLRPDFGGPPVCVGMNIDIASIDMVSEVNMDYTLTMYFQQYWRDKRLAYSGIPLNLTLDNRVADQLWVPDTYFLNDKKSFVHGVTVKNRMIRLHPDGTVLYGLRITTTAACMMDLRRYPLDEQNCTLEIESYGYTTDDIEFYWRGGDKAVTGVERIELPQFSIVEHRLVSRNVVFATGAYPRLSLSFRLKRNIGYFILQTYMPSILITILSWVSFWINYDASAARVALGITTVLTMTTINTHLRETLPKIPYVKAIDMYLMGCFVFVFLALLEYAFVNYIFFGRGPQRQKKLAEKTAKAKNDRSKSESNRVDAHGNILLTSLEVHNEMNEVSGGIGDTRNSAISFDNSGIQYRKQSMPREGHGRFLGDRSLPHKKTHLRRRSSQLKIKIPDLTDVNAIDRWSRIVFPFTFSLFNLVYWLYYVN
T2 sequence (O14764 25-452 partner): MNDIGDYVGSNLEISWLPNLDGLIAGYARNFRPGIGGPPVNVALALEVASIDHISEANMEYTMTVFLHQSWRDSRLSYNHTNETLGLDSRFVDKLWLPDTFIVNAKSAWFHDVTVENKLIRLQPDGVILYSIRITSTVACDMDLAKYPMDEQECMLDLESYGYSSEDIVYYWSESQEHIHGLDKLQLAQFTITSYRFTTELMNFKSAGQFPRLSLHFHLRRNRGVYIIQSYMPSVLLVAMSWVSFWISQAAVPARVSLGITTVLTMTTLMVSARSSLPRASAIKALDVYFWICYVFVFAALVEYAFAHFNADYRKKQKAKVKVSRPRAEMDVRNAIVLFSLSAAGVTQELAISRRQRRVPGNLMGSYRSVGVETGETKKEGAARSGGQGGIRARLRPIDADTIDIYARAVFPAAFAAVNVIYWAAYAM
The experiment in a line: Whole-cell patch clamp, extrasynaptic functional activity (positive allosteric regulation of GABA-induced current). In kind it is cell-based. The note with it: patch clamp -60 mV, GABA at EC10-20, α4β3δ-HEK-FlpIn-TRex cells. The procedure: as §1, §2, §3, §4

Data set [4] is described as follows: In vitro liver microsomal stability assay, rat. The class given is in vitro ADME. The conditions noted are these: for Remaining amount % at 60 min: Rat liver microsomes 0.5 mg/mL, NADPH; for microsomal CLint at 1 µM: read-out: CLint(mic). On the procedure:
as §5, §6, §7, §8, §9, §10, §11, §12, §13, §14, §15
In general terms: Liver microsomes are a subcellular fraction often used to study metabolism.

T1 sequence (P14867 28-456): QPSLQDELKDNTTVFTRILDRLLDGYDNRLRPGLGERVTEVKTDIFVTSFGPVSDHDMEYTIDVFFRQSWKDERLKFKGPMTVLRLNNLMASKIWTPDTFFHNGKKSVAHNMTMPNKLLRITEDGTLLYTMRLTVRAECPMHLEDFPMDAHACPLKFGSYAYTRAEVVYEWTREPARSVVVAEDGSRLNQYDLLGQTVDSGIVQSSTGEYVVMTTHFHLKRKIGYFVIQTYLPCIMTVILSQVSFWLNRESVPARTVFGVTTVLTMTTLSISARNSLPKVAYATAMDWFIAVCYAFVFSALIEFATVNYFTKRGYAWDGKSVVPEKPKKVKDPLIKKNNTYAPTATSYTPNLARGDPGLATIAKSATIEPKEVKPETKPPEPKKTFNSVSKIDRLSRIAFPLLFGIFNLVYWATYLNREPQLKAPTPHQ
T1 sequence (P47870 25-512 limits assumed): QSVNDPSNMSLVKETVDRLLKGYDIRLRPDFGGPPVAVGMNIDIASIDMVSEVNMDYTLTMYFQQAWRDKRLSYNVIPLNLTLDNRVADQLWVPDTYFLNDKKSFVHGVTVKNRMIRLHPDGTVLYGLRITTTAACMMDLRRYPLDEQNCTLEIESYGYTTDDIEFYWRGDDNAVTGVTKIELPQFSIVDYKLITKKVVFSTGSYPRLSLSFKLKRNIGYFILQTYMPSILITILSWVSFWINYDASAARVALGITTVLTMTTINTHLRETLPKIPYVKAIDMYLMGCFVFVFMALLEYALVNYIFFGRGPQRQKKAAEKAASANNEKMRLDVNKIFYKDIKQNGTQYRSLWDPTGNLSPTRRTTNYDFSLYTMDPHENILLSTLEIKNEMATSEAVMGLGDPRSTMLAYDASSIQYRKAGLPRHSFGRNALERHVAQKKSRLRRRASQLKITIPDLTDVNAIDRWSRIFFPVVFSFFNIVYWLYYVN
T1 sequence (P18507 40-475 partner): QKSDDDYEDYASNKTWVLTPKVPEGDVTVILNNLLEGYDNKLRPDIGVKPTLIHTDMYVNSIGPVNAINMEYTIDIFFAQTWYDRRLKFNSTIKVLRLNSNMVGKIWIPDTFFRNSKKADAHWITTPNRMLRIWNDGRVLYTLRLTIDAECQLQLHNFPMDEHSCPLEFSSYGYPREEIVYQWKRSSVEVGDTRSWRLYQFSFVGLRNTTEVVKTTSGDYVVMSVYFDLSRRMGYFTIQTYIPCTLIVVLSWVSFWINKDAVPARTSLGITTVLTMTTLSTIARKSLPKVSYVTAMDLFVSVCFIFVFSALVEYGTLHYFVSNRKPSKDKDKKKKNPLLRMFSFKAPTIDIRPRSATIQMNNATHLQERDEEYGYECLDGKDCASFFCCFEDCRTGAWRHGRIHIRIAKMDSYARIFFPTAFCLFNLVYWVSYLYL

`C[C@@]1(O)CC[C@H]2[C@H](CC[C@@H]3[C@@H]2CC[C@]2(C)[C@@H](C(=O)Cn4cnn(-c5cccc(F)c5F)c4=O)CC[C@@H]32)C1` [Compound 27]: the EC50 is 126 nM in data set [1] and 42 nM in data set [3]. The Emax in data set [1] amounted to 445%; in data set [3] it was 526%. Moreover, the CLint scaled at 1 µM is 14 mL/min/kg in data set [2] (Human liver microsomes) and 122 mL/min/kg in data set [4] (Rat liver microsomes). Besides, the half-life at 1 µM in data set [2] (Human liver microsomes) was 91.2 min; in data set [4] (Rat liver microsomes), 20.4 min. For the same molecule, the “Remaining amount % at 60 min” value amounted to 64.13% in data set [2] and 14.60% in data set [4]. Moreover, the microsomal CLint at 1 µM in data set [2] (Human liver microsomes) worked out at 15 µL/min/mg; in data set [4] (Rat liver microsomes), 68 µL/min/mg.
As for `C[C@@]1(O)CC[C@@]2(C)[C@@H](CC[C@@H]3[C@@H]2CC[C@]2(C)[C@@H](C(=O)Cn4cnn(-c5cccc(F)c5)c4=O)CC[C@@H]32)C1` [Compound 33], in data set [1], the EC50 was 598 nM and the Emax came out at 495%. In data set [2] (Human liver microsomes), the CLint scaled at 1 µM is under 6.7 mL/min/kg, the half-life at 1 µM was over 186 min and the microsomal CLint at 1 µM was under 7.5 µL/min/mg. Moreover, the “Remaining amount % at 60 min” value in data set [2] came out at 85.8%. Moreover, in data set [3], the EC50 came to 96 nM and the Emax was found to be 936%. In data set [4] (Rat liver microsomes), the CLint scaled at 1 µM came out at 29 mL/min/kg, the half-life at 1 µM was 85.6 min and the microsomal CLint at 1 µM stood at 16 µL/min/mg. Moreover, in data set [4], the “Remaining amount % at 60 min” value came to 62.2%.
In data set [1], `C[C@@]1(O)CC[C@H]2[C@H](CC[C@@H]3[C@@H]2CC[C@]2(C)[C@@H](C(=O)Cn4cnn(-c5cc(F)ccc5F)c4=O)CC[C@@H]32)C1` [Compound 24] came in with an EC50 of 340 nM and an Emax of 347%. Moreover, in data set [2] (Human liver microsomes), the CLint scaled at 1 µM amounted to 17 mL/min/kg, the half-life at 1 µM turned out to be 71.4 min and the microsomal CLint at 1 µM worked out at 19 µL/min/mg. Further, the “Remaining amount % at 60 min” value in data set [2] is listed as 56.1%. In data set [3], this molecule came in with a concentration for a half-maximal effect (EC50) of 79 nM and an Emax of 743%. In data set [4] (Rat liver microsomes), the CLint scaled at 1 µM came to 118 mL/min/kg, the half-life at 1 µM was 21.1 min and the microsomal CLint at 1 µM amounted to 66 µL/min/mg. Also, the “Remaining amount % at 60 min” value in data set [4] stood at 14.7%.
As to `C[C@@]1(O)CC[C@H]2[C@H](CC[C@@H]3[C@@H]2CC[C@]2(C)[C@@H](C(=O)Cn4cnn(CCOC(F)(F)F)c4=O)CC[C@@H]32)C1` [Compound 43], the Emax in data set [1] amounted to 576%; in data set [3], 889%. The CLint scaled at 1 µM in data set [2] (Human liver microsomes) turned out to be 41 mL/min/kg; in data set [4] (Rat liver microsomes), 108 mL/min/kg. In addition, the values for the T1/2 in data set [2] (Human liver microsomes) and in data set [4] (Rat liver microsomes) were 30.7 min and 23 min, respectively. In addition, the “Remaining amount % at 60 min” value came to 25.97% in data set [2] and 15.74% in data set [4]. Besides, the results for the microsomal CLint at 1 µM in data set [2] (Human liver microsomes) and in data set [4] (Rat liver microsomes) were 45 µL/min/mg and 60 µL/min/mg, respectively.
For the molecule `C[C@@]1(O)CC[C@H]2[C@H](CC[C@@H]3[C@@H]2CC[C@]2(C)[C@@H](C(=O)Cn4cnn(-c5nccs5)c4=O)CC[C@@H]32)C1` [Compound 32], in data set [1], a half-maximal response (EC50) required 330 nM and the maximum response (Emax) stood at 763%. Also, in data set [2] (Human liver microsomes), the CLint scaled at 1 µM came out at 19 mL/min/kg, the half-life at 1 µM was 64.8 min and the microsomal CLint at 1 µM came out at 21 µL/min/mg. Further, in data set [2], the “Remaining amount % at 60 min” value amounted to 66.8%. In data set [3], the EC50 was found to be 126 nM and the Emax stood at 633%. For the same molecule, in data set [4] (Rat liver microsomes), the CLint scaled at 1 µM was determined as 152 mL/min/kg, the half-life at 1 µM is 15.4 min and the microsomal CLint at 1 µM turned out to be 85 µL/min/mg. Further, in data set [4], the “Remaining amount % at 60 min” value is on record as 7.7%.
As to `CC(C)(C)n1ncn(CC(=O)[C@H]2CC[C@H]3[C@@H]4CC[C@@H]5C[C@](C)(O)CC[C@@H]5[C@H]4CC[C@]23C)c1=O` [Compound 45], the results for the EC50 in data set [1] and in data set [3] were 121 nM and 113 nM, respectively. In addition, the values for the Emax in data set [1] and in data set [3] were 806% and 749%, respectively. Also, the CLint scaled at 1 µM in data set [2] (Human liver microsomes) was 22 mL/min/kg; in data set [4] (Rat liver microsomes), 281 mL/min/kg. Further, the half-life at 1 µM in data set [2] (Human liver microsomes) was determined as 56.3 min; in data set [4] (Rat liver microsomes), 8.9 min. In addition, the “Remaining amount % at 60 min” value in data set [2] turned out to be 48.81%; in data set [4], 7.24%. For the same molecule, the microsomal CLint at 1 µM in data set [2] (Human liver microsomes) turned out to be 25 µL/min/mg; in data set [4] (Rat liver microsomes), 156 µL/min/mg.

As a reminder, the EC50 is the midpoint of the concentration-response curve. For orientation: Emax means the maximal effect, on the per cent scale that the assay sets. As usually defined, the CLint scaled is a measure of how fast metabolising enzymes remove a compound, apart from limits set by blood flow. For orientation: half-life means the time in which the quantity being followed falls by half. High values mean slow decline, low ones rapid decline.
